This test has as its system 5-methoxy-N,N-dimethyltryptamine-induced head twitching (serotoninergic syndrome). In words: head twitches induced by 5-methoxy-N,N-dimethyltryptamine in mice. The test is classed as in vivo. The text has this: The fourth in vivo study evaluated activity of the compounds of the invention on serotonin agonist-induced head twitching (serotoninergic syndrome). The compound 5-methoxy-N,N-dimethyl tryptamine is a serotonin agonist which induces head twitching in mice. The activity of this tryptamine compound is increased by antidepressant drugs. This study evaluated the ability of the compounds of the present invention to influence the effect of the tryptamine-induced head twitching (E. Friedman, et al., Eur. J. Pharmacol., 89, 69-76, 1983).
The compounds to be tested were administered to mice at the dose of 3 mg/kg p.o. either acutely or chronically twice a day continually for 2 weeks. The increased head twitching caused by the tryptamine compound (2 mg/kg i.p.) was observed 1, 24 and 72 hours after the last administration of the test compound.

The structures appear in SMILES notation.

The source of these data is patent US4738979A, “α2 -blocking derivatives of imidazole” (G. D. Searle & Co., priority 1985, dated 1988).

Take `c1ccc(C(Cc2c[nH]cn2)c2ccccc2)cc1` [Compound 1, 4(5)-(2,2-diphenylethyl)-imidazole]: the “Head Twitches/5 Minutes, percent compared to the vehicle treated group” value runs as follows: (acute, 3 mg/kg p.o., 1 h after last treatment, tryptamine compound 2 mg/kg i.p.) 171%; (chronic, 3 mg/kg p.o. twice a day 2 weeks, 1 h after last treatment) 278%; (chronic, 3 mg/kg p.o. twice a day 2 weeks, 24 h after last treatment) 210%; (chronic, 3 mg/kg p.o. twice a day 2 weeks, 72 h after last treatment) 211%.
